This is an account of results in PMC9694334, “Synthesis and Biological Evaluation of a Fused Structure of Indolizine and Pyrrolo[1,2-c]pyrimidine: Identification of Its Potent Anticancer Activity against Liver Cancer Cells” (Pharmaceuticals, 2022).

For orientation: IC50 means the midpoint of a concentration-inhibition curve. Higher therefore signals weaker potency in that assay.

The subject of assay [1] is HT29 cells. The experiment in a line: Cell viability assay (MTS) in HT29 cells. In kind it is cell-based. As to conditions: mean, n = 3. Here is the method:
(§1) HepG2, Huh7, H1299, HT29, AGS and A549 cells were purchased from the Korean Cell Line Bank (Seoul, Korea) and HaCaT cells were obtained from Prof. Sohee Kwon (Yonsei University, Korea). Liver cancer cells (HepG2), human keratinocyte cells (HaCaT), and lung cancer cells (A549) were grown in DMEM high-glucose medium, liver cancer cells (Huh7) and non-small cell lung cancer cells (H1299) were grown in RPMI 1640, and gastric cancer cells (AGS) were grown in Coon’s modified F12 medium. All media were supplemented with 10% FBS, 100 Units/mL penicillin, and 100 μg/mL streptomycin. All cells were incubated at 37 °C, 5% CO2 and 95% humidity.
(§2) Cell viability assay was conducted using Cell Titer 96® AQueous One Solution Cell proliferation Assay kit (Promega, Madison, WI, USA). Five cancer cells and HaCaT cells were plated in 96-well microplates with growth medium for 24 h. When cell confluency reached ~30%, cells were treated with DMSO (vehicle) and test compounds. The medium and test compounds were replaced every 24 h. To measure cell viability, the cells were incubated with MTS solution for 1 h. The absorbance was measured by using Infinite M200 microplate reader (Tecan, Männedorf, Switzerland) at 490 nm.

Assay [2] relates to H1299 cells. The experiment in a line: Cell viability assay (MTS) in H1299 cells. As to conditions: 10 μM, mean, n = 3. Type of assay: cell-based. Here is the method:
as §1, §2
(§3) Figure 2 Effect of 5r on cell viability in HepG2, Huh7, AGS, H1299, A549, HaCaT, NIH3T3, and HEK293T cells. (A–H) HepG2, Huh7, AGS, H1299, A549, HaCaT, NIH3T3, and HEK293T cells were cultured with 5r at the indicated concentrations for 72 h, and medium was replaced every 24 h with freshly added 5r. Cell viability was measured by MTS analysis (mean ± S.D., n = 5). * p < 0.05, ** p < 0.01, *** p < 0.001.

Assay [3] relates to Huh7 cells. The experiment in a line: Cell viability assay (MTS) in Huh7 cells. In kind it is cell-based. As to conditions: Homo sapiens, Huh-7, mean, n = 5, 72 h for 5r (Figure 2). The protocol:
as §1, §2, §3

In assay [4] the test system is HepG2 cells. The experiment in a line: Cell viability assay (MTS) in HepG2 cells. In kind it is cell-based. As to conditions: mean; for IC50: Homo sapiens, MTS, n = 5, 72 h for 5r (Figure 2). The protocol: as §1, §2, §3
For assay [5], the system named is A549 cells. The experiment in a line: Cell viability assay (MTS) in A549 cells. In kind it is cell-based. As to conditions: 10 μM, mean, n = 3. Here is the method:
as §1, §2, §3

For assay [6], the system named is HaCaT cells. The experiment in a line: Cell viability assay (MTS) in HaCaT cells. Type of assay: cell-based, human. As to conditions: Homo sapiens, mean, n = 5. Here is the method: as §1, §2, §3
For assay [7], the system named is AGS cells. The experiment in a line: Cell viability assay (MTS) in AGS cells. In kind it is cell-based. The settings on record: 10 μM, mean, n = 3. The protocol:
as §1, §2, §3

Assay [8] concerns hepatocellular carcinoma. Details: method as in PMID 10951336, PMID 11408798, PMID 11462924, PMID 12115351, PMID 14612894. The settings on record: gemcitabine alone; phase 2 clinical trials; cited from earlier work.
The subject of assay [9] is caspase-3. The experiment in a line: Caspase-3 activity assay in HepG2 cells. The settings on record: 20 μM Ac-DEVD-CHO, Figure 4C. Type of assay: cell-based. The protocol: (§4) HepG2 and Huh7 cells were plated in 96-black-well plate to about 40% confluence, and then 5r was treated for 24 h. To assess activity of caspase-3, the growth medium was changed with 100 μL of PBS containing 1 μM caspase-3 substrate, NucView 488, and incubated at room temperature. After 20 min, 1 μM Hoechst 33342 was treated to stain the cells. Activity of caspase-3 was suppressed by Ac-DEVD-CHO, a selective caspase-3 inhibitor. FLUOstar Omega microplate reader (BMG Labtech, Ortenberg, Germany) was used to assess the fluorescence of NucView 488 and Hoechst, and Lionheart FX Automated Microscope (BioTek, Winooski, VT, USA) was used to acquire the fluorescence microscopy images.
(§5) Figure 4 Effect of 5r on activity of caspase-3 and cleavage of PARP in HepG2 and Huh7 cells. (A,B) HepG2 and Huh7 cells were incubated with 3 µM 5r for 24 h and then incubated with 1 µM caspase-3 substrate (green) and 1 µM Hoechst 33,342 (blue) for 20 min before image acquisition. (C,D) Cells were cultured with 5r at the indicated concentrations for 24 h and then 1 μM caspase-3 substrate was treated for 20 min. Caspase-3 was inhibited by 20 μM Ac-DEVD-CHO (mean ± S.D., n = 3). (E,F) Cells were cultured with 5r at the indicated concentrations for 24 h, and expression level of PARP, cleaved-PARP and β-actin were measured by Western blot analysis. […]

The subject of assay [10] is caspase-3. The experiment in a line: Caspase-3 activity assay in Huh7 cells. Type of assay: cell-based. As to conditions: 20 μM Ac-DEVD-CHO, Figure 4D. The protocol:
as §4, §5

Where only a bound is given, the exact number is not on record here.

Take `N#Cc1c2c3cccn3c(-c3cccs3)nc2n2ccccc12` [Compound 5n, 5-(Thiophen-2-yl)pyrrolo[1′,2′:1,6]pyrimido[5,4-b]indolizine-12-carbonitrile]: the “% Inhibition of Cell Viability at 10 μM HT29” value in assay [1] is on record as 48.4%. Further, the “% Inhibition of Cell Viability at 10 μM H1299” value in assay [2] turned out to be 70.3%. Besides, the IC50 was 0.75 µM in [3], 0.28 µM in [4] and 13.3 µM in assay [6]. The “% Inhibition of Cell Viability at 10 μM HepG2” value in [4] (10 μM, n = 3) was found to be 98.9%. Besides, in assay [5], the “% Inhibition of Cell Viability at 10 μM A549” value turned out to be 38.0%. In addition, in [7], the “% Inhibition of Cell Viability at 10 μM AGS” value is less than 25%.
With `COc1ccc(-c2nc3c(c(C#N)c4ccccn43)c3cccn23)c(O)c1` [Compound 5z, 5-(2-Hydroxy-4-methoxyphenyl)pyrrolo[1′,2′:1,6]pyrimido[5,4-b]indolizine-12-carbonitrile], the IC50 in assay [3] came out at 0.71 µM; in assay [4], 0.64 µM; in assay [6] it was 1.95 µM.
In the same order, the values of `N#Cc1c2c3[nH]c4ccccc4c3c(-c3cccs3)nc2n2ccccc12` [Compound 10d, 7-(Thiophen-2-yl)-12H-indolizino[2′,3′:5,6]pyrido[4,3-b]indole-13-carbonitrile] are 0.6 µM, 2.27 µM and 0.81 µM.
Turning to `Nc1ccn([C@@H]2O[C@H](CO)[C@@H](O)C2(F)F)c(=O)n1` [gemcitabine], the Response rate in [8] is recorded as 0–20%.
In the case of Ac-DEVD-CHO [reference compound], the “Inhibition of 5r-increased caspase-3 activity in HepG2 cells” value in [9] was “fully inhibited”. Also, the “Inhibition of 5r-increased caspase-3 activity in Huh7 cells” value in assay [10] was “fully inhibited”.
